Source: PubChem BioAssay (NCI)
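Five concentrations, 48 hours, 96-well plates. Abbreviation: GI50, concentration required for 50% inhibition of growth. TGI marks complete inhibition of growth.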

How the values were obtained:
Test in all cases: DTP human tumour cell line panel, 48 h
IGROV1 ovarian = system: IGROV1 ovarian
NCI-H460 lung = system: NCI-H460 lung
HT29 colon = system: HT29 colon
MOLT-4 leukemia = system: MOLT-4 leukemia
U251 CNS = system: U251 CNS
OVCAR-3 ovarian = system: OVCAR-3 ovarian
EKVX NSCLC = system: EKVX NSCLC
TK-10 renal = system: TK-10 renal
ACHN renal = system: ACHN renal
A549 NSCLC = system: A549 NSCLC

## COC(=O)C(C)N1C(=O)c2ccccc2I1OC(C)=O (stereo not given)
IGROV1 ovarian
  GI50: 37.2 µM
  TGI: > 100 µM
NCI-H460 lung
  GI50: > 100 µM
  TGI: > 100 µM
HT29 colon
  GI50: 26.3 µM
  TGI: 97.5 µM
MOLT-4 leukemia
  GI50: 22 µM
  TGI: 45.7 µM
U251 CNS
  GI50: 34.8 µM
  TGI: > 100 µM
OVCAR-3 ovarian
  GI50: 23.3 µM
  TGI: > 100 µM
EKVX NSCLC
  GI50: > 100 µM
  TGI: > 100 µM
TK-10 renal
  GI50: 29.2 µM
  TGI: > 100 µM
ACHN renal
  GI50: 30.2 µM
  TGI: > 100 µM
A549 NSCLC
  GI50: > 100 µM
  TGI: > 100 µM

## CCOC(=O)C1C(c2cc(OC)c(O)c(OC)c2)c2cc3c(cc2OC1(C)O)OCO3 (stereo not given)
IGROV1 ovarian
  TGI: > 100 µM
NCI-H460 lung
  TGI: > 100 µM
HT29 colon
  TGI: > 100 µM
MOLT-4 leukemia
  TGI: > 100 µM
U251 CNS
  TGI: > 100 µM
OVCAR-3 ovarian
  TGI: > 100 µM
EKVX NSCLC
  TGI: > 100 µM
TK-10 renal
  TGI: > 100 µM
ACHN renal
  TGI: > 100 µM
A549 NSCLC
  TGI: > 100 µM

## Cc1cc(NS(=O)(=O)c2ccc(Nc3c4ccccc4nc4c(C(=O)NCCN(C)C)ccc(Cl)c34)cc2)no1
IGROV1 ovarian
  TGI: 20.7 µM
NCI-H460 lung
  TGI: 11.4 µM
HT29 colon
  TGI: 14.4 µM
MOLT-4 leukemia
  TGI: 1.74 µM
U251 CNS
  TGI: 13.6 µM
OVCAR-3 ovarian
  TGI: 23.9 µM
EKVX NSCLC
  TGI: 21.2 µM
TK-10 renal
  TGI: 27.1 µM
ACHN renal
  TGI: 12.3 µM
A549 NSCLC
  TGI: 17.3 µM
